# What was measured:
# PIK3CA (human) = PIK3CA (human) (UniProt P42336); assay: Assessment of PIK3CA Kinase Activity
# PIK3CG (human) = PIK3CG (human) (UniProt P48736); assay: Assessment of PIK3CG Kinase Activity
# Sequence of PIK3CG (human) (P48736 whole entry, looked up): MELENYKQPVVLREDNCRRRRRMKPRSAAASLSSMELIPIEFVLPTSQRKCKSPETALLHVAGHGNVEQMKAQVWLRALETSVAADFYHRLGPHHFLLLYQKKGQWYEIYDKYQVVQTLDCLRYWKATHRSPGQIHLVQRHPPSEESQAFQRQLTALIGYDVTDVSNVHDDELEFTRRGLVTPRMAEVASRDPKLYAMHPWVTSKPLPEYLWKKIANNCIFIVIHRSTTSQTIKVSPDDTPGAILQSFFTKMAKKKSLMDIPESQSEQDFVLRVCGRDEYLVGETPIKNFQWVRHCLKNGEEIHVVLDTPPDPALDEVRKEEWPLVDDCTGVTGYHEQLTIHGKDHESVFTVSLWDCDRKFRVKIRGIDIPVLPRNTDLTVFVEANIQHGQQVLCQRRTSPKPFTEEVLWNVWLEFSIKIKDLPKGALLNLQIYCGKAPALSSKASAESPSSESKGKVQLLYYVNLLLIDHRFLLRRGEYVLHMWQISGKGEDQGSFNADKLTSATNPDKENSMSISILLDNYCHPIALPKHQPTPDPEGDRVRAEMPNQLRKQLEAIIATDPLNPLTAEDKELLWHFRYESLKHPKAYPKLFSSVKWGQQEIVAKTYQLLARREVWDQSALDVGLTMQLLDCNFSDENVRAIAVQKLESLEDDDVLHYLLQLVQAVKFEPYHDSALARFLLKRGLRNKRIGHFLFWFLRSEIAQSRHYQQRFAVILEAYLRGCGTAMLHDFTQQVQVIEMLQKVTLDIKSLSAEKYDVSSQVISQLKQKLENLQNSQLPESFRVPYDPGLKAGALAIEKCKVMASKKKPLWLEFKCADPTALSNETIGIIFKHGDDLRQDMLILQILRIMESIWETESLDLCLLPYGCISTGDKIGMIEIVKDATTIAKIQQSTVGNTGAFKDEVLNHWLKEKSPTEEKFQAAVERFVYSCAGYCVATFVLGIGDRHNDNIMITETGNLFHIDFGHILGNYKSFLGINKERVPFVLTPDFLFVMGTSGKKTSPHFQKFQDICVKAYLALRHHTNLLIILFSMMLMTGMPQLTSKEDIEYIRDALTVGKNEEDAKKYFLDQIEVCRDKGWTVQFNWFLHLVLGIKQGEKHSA
# Sequence of PIK3CA (human) (P42336 whole entry, looked up): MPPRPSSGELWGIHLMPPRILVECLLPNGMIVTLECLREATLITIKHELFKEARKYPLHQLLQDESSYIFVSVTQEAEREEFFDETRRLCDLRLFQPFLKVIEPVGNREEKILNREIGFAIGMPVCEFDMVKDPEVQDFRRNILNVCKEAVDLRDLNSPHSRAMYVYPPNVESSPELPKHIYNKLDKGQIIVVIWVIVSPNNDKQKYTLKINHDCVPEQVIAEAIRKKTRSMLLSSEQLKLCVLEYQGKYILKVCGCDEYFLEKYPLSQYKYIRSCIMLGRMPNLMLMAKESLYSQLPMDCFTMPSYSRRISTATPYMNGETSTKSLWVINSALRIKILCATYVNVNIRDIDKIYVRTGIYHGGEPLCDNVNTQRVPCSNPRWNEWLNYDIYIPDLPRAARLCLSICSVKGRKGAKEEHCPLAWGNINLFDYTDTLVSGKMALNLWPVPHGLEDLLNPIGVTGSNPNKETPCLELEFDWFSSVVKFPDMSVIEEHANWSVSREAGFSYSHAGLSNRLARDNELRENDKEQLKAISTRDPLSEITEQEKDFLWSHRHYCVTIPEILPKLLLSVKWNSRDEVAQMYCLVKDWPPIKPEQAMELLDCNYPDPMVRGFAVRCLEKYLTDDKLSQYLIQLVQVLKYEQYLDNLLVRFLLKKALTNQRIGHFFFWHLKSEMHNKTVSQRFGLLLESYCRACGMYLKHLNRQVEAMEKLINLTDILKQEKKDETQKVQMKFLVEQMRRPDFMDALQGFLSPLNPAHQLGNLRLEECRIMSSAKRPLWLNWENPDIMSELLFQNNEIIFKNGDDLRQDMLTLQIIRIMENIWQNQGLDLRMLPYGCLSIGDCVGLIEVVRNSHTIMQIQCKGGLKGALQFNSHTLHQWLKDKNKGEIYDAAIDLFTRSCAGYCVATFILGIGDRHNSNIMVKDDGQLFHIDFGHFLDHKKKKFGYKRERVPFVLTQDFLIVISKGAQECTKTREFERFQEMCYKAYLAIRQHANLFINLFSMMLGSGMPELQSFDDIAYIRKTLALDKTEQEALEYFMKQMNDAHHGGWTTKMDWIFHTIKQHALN
structure (smiles),measurement,setting,value
CCn1ncc2c(N3CC4CCC(C3)O4)nc(-c3ccc(NC(=O)NC(=O)CNCCN(C)C)cc3)nc21,IC50,PIK3CA (human),0.311 µM
same,IC50,PIK3CG (human),0.494 µM
O=C(Nc1ccncc1)Nc1ccc(-c2nc(N3CC4CCC(C3)O4)c3cnn([C@H]4CC[C@]5(CCCO5)CC4)c3n2)cc1,IC50,PIK3CG (human),2.22 µM
O=C(Nc1ccc(-c2nc(N3CC4CCC(C3)O4)c3sccc3n2)cc1)NC1CC1,IC50,PIK3CG (human),10 µM
O=C(Nc1ccc(-c2nc(N3CC4CCC(C3)O4)c3cnn([C@H]4CC[C@]5(CCCO5)CC4)c3n2)cc1)Nc1ccc(N2CCNCC2)cc1,IC50,PIK3CG (human),2.02 µM
CC(=O)Nc1ccc(NC(=O)Nc2ccc(-c3nc(N4CC5CCC(C4)O5)c4cnn(C)c4n3)cc2)cc1,IC50,PIK3CA (human),1.05 µM
same,IC50,PIK3CG (human),2.72 µM
CN1CCN(c2ccc(NC(=O)Nc3ccc(-c4nc(N5CC6CCC(C5)O6)c5cnn([C@H]6CC[C@]7(CCCO7)CC6)c5n4)cc3)cc2)CC1,IC50,PIK3CG (human),1.45 µM
O=C(NCCO)Nc1ccc(-c2nc(N3CC4CCC(C3)O4)c3sccc3n2)cc1,IC50,PIK3CG (human),10 µM
O=C(Nc1ccc(-c2nc(N3CC4CCC(C3)O4)c3cnn([C@H]4CC[C@]5(CCCO5)CC4)c3n2)cc1)OCCO,IC50,PIK3CG (human),2.06 µM
COC1CCC(n2ncc3c(N4CC5CCC(C4)O5)nc(-c4ccc(NC(=O)Nc5ccncc5)cc4)nc32)CC1 (stereo not given),IC50,PIK3CG (human),0.825 µM
CN(C)CC(=O)Nc1ccc(NC(=O)Nc2ccc(-c3nc(N4CC5CCC(C4)O5)c4cnn(C)c4n3)cc2)cc1,IC50,PIK3CA (human),0.346 µM
same,IC50,PIK3CG (human),1.41 µM
CCn1ncc2c(N3CC4CCC(C3)O4)nc(-c3ccc(NC(=O)NC(=O)CCNCCN(C)C)cc3)nc21,IC50,PIK3CA (human),1.83 µM
same,IC50,PIK3CG (human),8.11 µM
